Measurements taken from patent US5039691A, “5-(1-(imidazol)methyl)-3,3-disubstituted-2(3H)furanone derivatives” (Marion Merrell Dow Inc., priority 1990, dated 1991).
Structures can show the parent of a compound that is named as a salt.

Assays:
Male Guinea pigs = assay: Primary in vivo bronchodilator assay for muscarinic antagonists (reversal of carbachol bronchoconstriction); design: species or system guinea pig; details: Cavia porcellus, iv, cumulative dose causing 50% reversal of carbachol bronchoconstriction
Description: PRIMARY IN VIVO BRONCHODILATOR ASSAY FOR MUSCARINIC ANTAGONISTS Male Guinea pigs were anesthetized by urethane. The trachea, carotid artery and jugular vein were cannulated. Animals were ventilated with room air at a constant rate and volume. Airway pressure was measured from a side port of the tracheal catheter, and blood pressure and heart rate were monitored as well. After a stable baseline period, an aerosol of carbachol was administered via an ultrasonic nebulizer. Once the bronchoconstrictor response plateaued, test compound was given in increasing i.v. doses to cause graded, cumulative reductions in airway pressure. If more than a 50% reversal of bronchoconstriction occurred, an ED50 value for bronchodilator potency was calculated using a probit analysis. The ED50 was defined as the cumulative i.v. dose that caused a 50% reversal of bronchoconstriction.

[1] = biological target: T1, muscarinic cholinergic receptors on intestinal (ileal-longitudinal) smooth muscle (Cavia porcellus, UniProt H0W1Z3); assay: Antimuscarinic test: antagonism of carbachol contraction of isolated ileum (Muscarinic Antagonist Activity, Ileum); design: species or system guinea pig; details: carbachol agonist, 37° C.
T1 construct: The longitudinal muscle, with the myenteric plexus attached, is separated from the underlying circular muscle; from tissue; host or cells: guinea pig ileum, longitudinal smooth muscle with myenteric plexus
T1 sequence (H0W1Z3 1-590): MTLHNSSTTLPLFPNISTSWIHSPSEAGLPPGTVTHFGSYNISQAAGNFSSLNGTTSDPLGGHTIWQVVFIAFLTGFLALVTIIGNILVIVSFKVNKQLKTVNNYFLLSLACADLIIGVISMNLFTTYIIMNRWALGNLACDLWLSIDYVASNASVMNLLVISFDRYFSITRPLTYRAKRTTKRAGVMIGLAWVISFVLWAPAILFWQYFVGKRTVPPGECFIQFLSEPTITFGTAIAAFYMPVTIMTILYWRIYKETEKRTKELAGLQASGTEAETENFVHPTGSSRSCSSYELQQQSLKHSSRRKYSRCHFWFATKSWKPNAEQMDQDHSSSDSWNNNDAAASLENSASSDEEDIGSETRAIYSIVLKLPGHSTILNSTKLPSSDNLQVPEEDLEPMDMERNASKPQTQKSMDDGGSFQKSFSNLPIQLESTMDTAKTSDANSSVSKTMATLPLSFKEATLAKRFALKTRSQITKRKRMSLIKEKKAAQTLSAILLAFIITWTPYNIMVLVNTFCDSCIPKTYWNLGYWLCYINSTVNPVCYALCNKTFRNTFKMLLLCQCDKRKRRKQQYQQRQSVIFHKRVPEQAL

[2] = biological target: T2, muscarinic cholinergic receptors on bladder detrusor muscle (Cavia porcellus, UniProt H0W1Z3); assay: Antimuscarinic test: antagonism of carbachol contraction of isolated bladder (Muscarinic Antagonist Activity, Bladder); design: species or system guinea pig; details: bladder detrusor strips, carbachol agonist, 35° C.
T2 construct: The peritoneal cavity is opened and the bladder is held lightly at its apex; from tissue; host or cells: guinea pig urinary bladder, detrusor strips without mucosa
T2 sequence (H0W1Z3 1-590): as above
Description: ANTIMUSCARINIC TEST PROTOCOL
PREPARATION OF BLADDER FOR TESTING
Male albino guinea pigs are killed by decapitation or cervical dislocation. The peritoneal cavity is opened and the bladder is held lightly at its apex, stretched gently, and fat is lifted with fine forceps and dissected away in situ with blunt-tipped scissors as close to the surface of the bladder as possible. The tissue is placed in a latex-bottomed Petri dish that contains a modified Krebs solution (133 mM NaCl, 1.3 mM […], 16.3 mM NaHCO3, 4.7 mM KCl, 0.6 mM MgSO4.7H2 O, 2.5 mM CaCl2.2H2 O, 7.7 mM dextrose) and cut above the neck. The bladder is collapsed into a flat pouch, which is opened by two lateral incisions and unfolded to give a rectangular sheet of tissue approximately 2 cm long and 1 cm wide. The sheet is gently stretched and pinned to the bottom of the Petri dish. Blunt separation of the mucosa, which is visible as a looser superficial pink layer, is started at one end by carefully inserting the blades of micro dissecting scissors between the mucosa and muscle layers and using gentle spreading of the blades, together with steady traction with forceps to tease the two layers apart. Clean removal of the mucosa is usually possible without any fraying or tearing of the underlying muscle. The removal of the mucosa is considered essential for improving oxygen supply to the preparation and for providing better access on both sides of the thin muscle sheet for administered drugs (Ambache and Zar, J. Physiol. 210:671, 1970). The sheet is trimmed, if necessary, and cut longitudinally into four strips.
The strips are tied off with 5-0 silk suture and are then suspended in 10 mL water-jacketed glass tissue baths containing the Krebs solution maintained at 35° C. and aerated with 95% O2 /5% CO2. The suture connects each tissue to an isometric force-displacement transducer (Grass or Gould) coupled to a physiograph. Each preparation is suspended under a resting tension of 0.5 g and allowed to equilibrate for 36 minutes. During this period, the baths are emptied and filled every 12 minutes with 10 mL of warm Krebs buffer. At the end of this period, each muscle strip is conditioned by adding 10 μM carbachol to the baths. The drug remains in contact with each tissue for 1-2 minutes and then is removed by four rapid rinses of 10 mL of warm Krebs buffer. The preparations are allowed to recover for an additional 12 minutes before being used in experiments.
Carbachol is dissolved in saline to produce 2×10^-2 M stock concentrations. Serial dilutions (1:10) in saline or water are made from the stock solution. Appropriate volumes of these solutions are added cumulatively to the 10 mL tissue baths in order to obtain the desired bath concentrations.
PREPARATION OF TEST COMPOUNDS
Compounds that are soluble in water or saline are dissolved in these solvents to produce 2×10^-2 or 2×10^-3 M stock concentrations. Small amounts of IN HCl, NaOH, or 95% ethanol may be added for those agents that are not soluble in water or saline alone. Serial dilutions (1:10) in saline or water are made from the stock solution. Compounds that are insoluble in aqueous solvents are dissolved in dimethylsulfoxide (DMSO) to produce 4×10^-2 M stock solutions. Serial dilutions (1:10) in water are made from the stock solution. Other solvents may be used when appropriate and will be specifically described in the experimental procedure. Appropriate volumes are then added to the baths in order to obtain the desired bath concentrations.
Appropriate volumes of carbachol solutions are cumulatively added to the 10 mL tissue baths to increase the concentration of carbachol in the bath step-by-step without washing out after each single dose. With each concentration step, the tissue contracts isometrically. The next concentration is added only after the preceding contraction has reached a steady value. […]

[3] = tested on: isolated guinea pig ileum; details: Kolokouris et al., Ann. Pharm. Fr. 1985; cited from earlier work
Solubility = format: physicochemical
mammalian heart tissue = details: Pohland, S. African Patent 68 05,631; cited from earlier work

| Molecule | Kb [1] | Kb [2] | ED50 (Male Guinea pigs) | further results |
| --- | --- | --- | --- | --- |
| CCCc1nccn1CC1CC(c2ccccc2)(c2ccccc2)C(=O)O1 (stereo not drawn) [5-[1-(2-n-Propylimidazol)methyl]-4,5-dihydro-3,3-diphenyl-2(3H)furanone hydrochloride] | 21 nM | 70 nM | 1.3 mg/kg | – |
| CCc1nccn1CC1CC(c2ccccc2)(c2ccccc2)C(=O)O1 (stereo not drawn) [5-[1-(2-Ethylimidazol)methyl]-4,5-dihydro-3,3-diphenyl-2(3H)furanone hydrochloride] | 68 nM | 86 nM | 4 mg/kg | – |
| CCc1n(CC2CC(c3ccccc3)(c3ccccc3)C(=O)O2)cc[n+]1C (stereo not drawn) [5-[1-(2-Ethyl-3-methylimidazol)methyl]-4,5-dihydro-3,3-diphenyl-2(3H)furanone bromide] | 8 nM | 5 nM | 0.13 mg/kg | – |
| CN(C)CC1CC(c2ccccc2)(c2ccccc2)OC1=O (stereo not drawn) [3-[(dimethylamino)methyl]-4,5-dihydro-5,5-diphenyl-2(3H)furanone] | – | – | – | prevents contractions of isolated guinea pig ileum (spasmolytic) [3]: prevents contractions of isolated guinea pig ileum |
| O=C1OC(Cn2cnc(-c3ccccc3)c2)CC1(c1ccccc1)c1ccccc1 (stereo not drawn) [5-[1-(4-Phenylimidazol)methyl]-4,5-dihydro-3,3-diphenyl-2(3H)furanone hydrochloride hydrate] | 140 nM | – | – | Insol. (printed in the bronchodilator ED50 column) (Solubility; bronchodilator test, i.v.): Insol. |
| CC(C)c1nccn1CC1=CC(c2ccccc2)(c2ccccc2)C(=O)O1 [5-[1-(2-Isopropylimidazol)methyl]-3,3-diphenyl-2(3H)furanone hydrochloride hydrate] | 31 nM | – | – | solubility (Solubility; in 0.5N HCl and 1 drop of Tween 80): > 1000 µg/mL |
| CCc1nccn1C[C@@H]1CC(c2ccccc2)(c2ccccc2)C(=O)O1 [(S)-(-)-5-[1-(2-Ethylimidazol)methyl]-4,5-dihydro-3,3-diphenyl-2(3H)furanone hydrochloride] | 169 nM | 350 nM | – | – |
| 5-[1-(3-Methylimidazol)methyl]-4,5-dihydro-5-methyl-3,3-diphenyl-2(3H)furanone hydrate | 370 nM | 317 nM | – | – |
| CCN(CC)CC1CC(c2ccccc2)(c2ccccc2)C(=O)O1 (stereo not drawn) [5-[(Diethylamino)-methyl]-4,5-dihydro-3,3-diphenyl-2(3H)furanone] | – | – | – | antiarrhythmic effectiveness in mammalian heart tissue (mammalian heart tissue): antiarrhythmic effectiveness in mammalian heart tissue |

The next lines start with results.

| Kb [1] | Kb [2] | Molecule | ED50 (Male Guinea pigs) | further results |
| --- | --- | --- | --- | --- |
| 253 nM | 339 nM | CCOCc1n(C)cc[n+]1CC1CC(c2ccccc2)(c2ccccc2)C(=O)O1 (stereo not drawn) [5-[1-(Ethoxymethyl-3-methylimidazol)methyl]-4,5-dihydro-3,3-diphenyl-2(3H)furanone iodide] | > 10 mg/kg | – |
| 30 nM | 33 nM | CC(C)c1nccn1CC1CC(c2ccccc2)(c2ccccc2)C(=O)O1 (stereo not drawn) [5-[1-(2-Isopropylimidazol)methyl]-4,5-dihydro-3,3-diphenyl-2(3H)furanone hydrochloride] | 0.83 mg/kg | – |
| 322 nM | 151 nM | C[n+]1ccn(CC2CC(c3ccccc3)(c3ccccc3)C(=O)O2)c1 (stereo not drawn) [5-[1-(3-Methylimidazol)methyl]-4,5-dihydro-3,3-diphenyl-2(3H)furanone bromide hydrate] | 1 mg/kg | – |
| 23 nM | 11 nM | CCCc1n(CC2CC(c3ccccc3)(c3ccccc3)C(=O)O2)cc[n+]1C (stereo not drawn) [5-[1-(3-Methyl-2-n-propylimidazol-methyl]-4,5-dihydro-3,3-diphenyl-2(3H)furanone iodide] | 0.11 mg/kg | – |
| 4 nM | 2.4 nM | CC(C)c1n(CC2CC(c3ccccc3)(c3ccccc3)C(=O)O2)cc[n+]1C (stereo not drawn) [5-[1-(2-Isopropyl-3-methylimidazol)methyl]-4,5-dihydro-3,3-diphenyl-2(3H)furanone iodide] | – | – |
| 107 nM | 238 nM | Cc1nccn1CC1CC(c2ccccc2)(c2ccccc2)C(=O)O1 (stereo not drawn) [5-[1-(2-Methylimidazol)methyl]-4,5-dihydro-3,3-diphenyl-2(3H)furanone] | 5.5 mg/kg | – |
